Patent EP0008269A1, “Medicines containing as active ingredients compounds of the benzene-sulfone type; compounds of this type and process for their preparation” (CHOAY S.A., priority 1978, dated 1980)

Experiments:
[1] = system: cellules de la Lignée L.1210; test: Cytostatic activity: growth inhibition of L.1210 cells; format: cell-based; settings: L.1210 cells in culture
Protocol: Cette activité est étudiée en mesurant le pouvoir d'in- hibition de la croissance de cellules de la Lignée L.1210 cultivée sur un milieu approprié.
Ce pouvoir est exprimé en poids de produit par 10^5 cellules inhibant de 50 % la croissance cellulaire.
Pour la substance de l'exemple 5, ce poids est de 6 µg/10^5 cellules, pour celle de l'exemple 7, il est de 4 µg/10^5 cellules.

[2] = system: facteurs de coagulation; test: Activity on coagulation factors: thrombo-elastography on blood samples (terms r and k)
Excerpt: L'étude est faite par thrombo-élastographie sur des échantillons sanguins auxquels sont ajoutées des quantités dosées des substances actives selon l'invention.
La mesure des termes r (temps d'apparition de la fibrine pendant lequel la viscosité ne varie pas) et k (temps d'accroissement de la viscosité jusqu'à une valeur donnée) montre, pour les échantillons traités à l'aide de la substance de l'exemple 7, une augmentation de 32 % pour 10/ug/ml et de 45 % pour 100/ug/ml.

[3] = system: fibrillation; test: Antifibrillant activity: chloroform-induced cardiac fibrillation in mice; format: in vivo, souris; settings: 100 mg/kg i.p., 15 min before chloroform exposure
Protocol: Pour ces essais, on utilise comme précédemment des lots de 10 souris auxquelles sont administrés, par voie intrapéritonéale, 0,5 ml d'une solution ou suspension de substance étudiée dans du soluté isotonique.
Les souris sont traitées suivant une méthode voisine de celle décrite par B. Vargaftig et J.L. Coignet (Eur. J. Pharmacol., 1969, 6, 49). Selon cette méthode, les souris sont soumises à une atmosphère chargée d'une quantité déterminée de chloroforme. Lorsque les mouvements respiratoires cessent, le thorax est ouvert et le coeur examiné pour l'observation des tremblements superficiels très rapides. La fibrillation est positive lorsque ces mouvements sont observés pendant plus de 5 secondes.
La substance étudiée est administrée à raison de 100 mg/kg 15 minutes avant l'exposition au chloroforme.
La protection observée pour les substances des exemples 22 et 27 est d'environ 30 %.

[4] = system: vomissements; test: Antiemetic activity: apomorphine-induced vomiting in dogs; format: in vivo, chiens Beagle; settings: 1 mg/kg intramuscular, 30 min before apomorphine 0,1 mg/kg s.c., vomiting counted for the next half hour
Protocol: Les essais sont effectués sur des chiens Beagle adultes de 8 à 12 kg, qui sont mis à jeun pendant 24 heures.
Chaque animal est son propre témoin, un essai sans protection étant réalisé 8 jours avant l'essai proprement dit en présence de la substance étudiée.
Les substances étudiées sont administrées dans du soluté isotonique à raison de 1 mg/kg et par voie intramusculaire. 30 minutes après, on injecte l'apomorphine par voie sous-cutanée, à raison de 0,1 mg/kg., et l'on dénombre les vomissements dans la demi-heure suivante.
Dans ces conditions, on a observé, pour les substances des exemples 22, 24, 26 et 27, une réduction du nombre de vomissements qui est respectivement de 50,8 %, 28,2 %, 44,2 %, 47,6 %.

[5] = system: ulcères provoqués par immobilisation; test: Antiulcer activity: restraint (immobilisation) ulcer in rats; format: in vivo; settings: rat, 10 mg/kg i.p., compared with controls
Protocol: Elle est déterminée sur les ulcères provoqués par immobilisation chez le rat. La méthode de mesure est celle décrite par G. Narcisse (Thérapie, 1972, 27, 705). La substance est administrée par voie intrapéritonéale, à raison de 10 mg/kg.
Par comparaison avec des témoins, le pourcentage de protection, dans le cas du produit de l'exemple 22, est de 61,3 %.

Compound: COc1ccccc1S(=O)(=O)CCCl [Exemple 5]
- poids de produit par 10^5 cellules inhibant de 50 % la croissance cellulaire [1]: 6 µg/10^5 cellules

Compound: COc1ccc(Cl)cc1S(=O)(=O)CCCl [Exemple 7]
- augmentation des termes r et k ([2]; 10/ug/ml added to blood samples): 32%
- augmentation des termes r et k ([2]; 100/ug/ml added to blood samples): 45%
- poids de produit par 10^5 cellules inhibant de 50 % la croissance cellulaire [1]: 4 µg/10^5 cellules

Compound: COc1ccc(Cl)cc1S(=O)(=O)CCN1CCOCC1 [Exemple 22]
- protection (fibrillation) [3]: ~30%
- réduction du nombre de vomissements [4]: 50,8%
- pourcentage de protection [5]: 61,3%

Compound: COc1ccc(Cl)cc1S(=O)(=O)CCN1CCCCC1 [Exemple 24]
- réduction du nombre de vomissements [4]: 28,2%

Compound: COc1ccc(Cl)cc1S(=O)(=O)CCCN1CCCC1 [Exemple 26]
- réduction du nombre de vomissements [4]: 44,2%

Compound: COc1ccc(Cl)cc1S(=O)(=O)CCCN1CCCCC1 [Exemple 27]
- protection (fibrillation) [3]: ~30%
- réduction du nombre de vomissements [4]: 47,6%
